# Assay results published in patent US9745321B2, “Fused pyrimidine compound, intermediate, preparation method therefor, and composition and application thereof” (SHANGHAI YINGLI PHARMACEUTICAL CO., LTD, priority 2013, dated 2017).
# Tests used:
# PI3Kδ = PI3Kδ (Homo sapiens (Human), UniProt O00329); assay: PI3Kδ enzyme activity inhibition IC50 evaluation assay; assay type: biochemical; conditions: luminescence, 25 μM ATP, 50 μM PIP2, 2 hrs room temperature
# Method: (§1) PI3Kα, PI3Kδ, PI3Kβ and PI3Kγ Enzyme Activity Inhibition IC50 Evaluation Assay
# • 1. Buffer preparation: 50 mM HEPES, pH 7.5, 3 mM MgCl2, 1 mM EGTA, 100 mM NaCl, 0.03% CHAPS. • 2. Compound was formulated in 100% DMSO in a concentration gradient, and added to a 384-well plate to a final DMSO concentration of 1%. • 3. PI3Kα, PI3Kδ, PI3Kβ and PI3Kγ enzymes were diluted to an optimum concentration with the following buffer: 50 mM HEPES, pH 7.5, 3 mM MgCl2, 1 mM EGTA, 100 mM NaCl, 0.03% CHAPS, 2 mM DTT, and transferred to a 384-well plate and incubated with the compound for a certain time. • 4. […] For PI3Kβ and PI3Kγ, it was still necessary to further add 10 μL ADP-Glo Detection Reagent, and then equilibrated at room temperature for 30 minutes. • 5. Read Luminescense with FlexStation, and calculate the inhibition rate as the average of two tests.
# PI3Kα = PI3Kα (Homo sapiens (Human), UniProt P42336); assay: PI3Kα enzyme activity inhibition IC50 evaluation assay; assay type: biochemical; conditions: ratio PI3Kα vs PI3Kδ
# Chain of PI3Kα (P42336 whole entry): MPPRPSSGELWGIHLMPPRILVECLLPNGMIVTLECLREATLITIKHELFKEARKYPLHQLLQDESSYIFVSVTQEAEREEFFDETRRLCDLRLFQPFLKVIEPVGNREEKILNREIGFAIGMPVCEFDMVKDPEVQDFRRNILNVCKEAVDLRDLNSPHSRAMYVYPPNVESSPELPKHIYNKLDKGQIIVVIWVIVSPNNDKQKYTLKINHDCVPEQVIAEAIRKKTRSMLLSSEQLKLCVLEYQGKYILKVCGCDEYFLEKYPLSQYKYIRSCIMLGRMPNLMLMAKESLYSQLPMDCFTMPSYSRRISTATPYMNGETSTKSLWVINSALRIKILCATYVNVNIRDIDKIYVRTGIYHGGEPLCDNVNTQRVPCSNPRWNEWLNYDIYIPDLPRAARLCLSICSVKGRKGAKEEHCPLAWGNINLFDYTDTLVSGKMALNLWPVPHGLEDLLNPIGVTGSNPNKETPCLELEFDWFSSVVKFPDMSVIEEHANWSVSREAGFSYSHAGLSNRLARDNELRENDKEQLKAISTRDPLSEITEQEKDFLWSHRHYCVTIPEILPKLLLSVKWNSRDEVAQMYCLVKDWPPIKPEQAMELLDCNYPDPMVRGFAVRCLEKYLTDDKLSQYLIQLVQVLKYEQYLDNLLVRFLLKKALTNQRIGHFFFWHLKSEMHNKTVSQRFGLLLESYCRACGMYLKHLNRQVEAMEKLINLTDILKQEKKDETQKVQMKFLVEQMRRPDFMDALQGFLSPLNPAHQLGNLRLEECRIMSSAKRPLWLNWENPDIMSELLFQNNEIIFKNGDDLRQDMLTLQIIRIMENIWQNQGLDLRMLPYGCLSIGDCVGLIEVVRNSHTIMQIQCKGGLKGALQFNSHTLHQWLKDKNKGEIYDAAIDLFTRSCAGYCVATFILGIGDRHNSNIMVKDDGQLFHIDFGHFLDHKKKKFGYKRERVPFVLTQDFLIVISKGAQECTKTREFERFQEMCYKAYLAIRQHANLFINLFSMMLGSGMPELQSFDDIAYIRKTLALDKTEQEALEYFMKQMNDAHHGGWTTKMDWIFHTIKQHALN
# Chain of PI3Kα (P27986 whole entry partner): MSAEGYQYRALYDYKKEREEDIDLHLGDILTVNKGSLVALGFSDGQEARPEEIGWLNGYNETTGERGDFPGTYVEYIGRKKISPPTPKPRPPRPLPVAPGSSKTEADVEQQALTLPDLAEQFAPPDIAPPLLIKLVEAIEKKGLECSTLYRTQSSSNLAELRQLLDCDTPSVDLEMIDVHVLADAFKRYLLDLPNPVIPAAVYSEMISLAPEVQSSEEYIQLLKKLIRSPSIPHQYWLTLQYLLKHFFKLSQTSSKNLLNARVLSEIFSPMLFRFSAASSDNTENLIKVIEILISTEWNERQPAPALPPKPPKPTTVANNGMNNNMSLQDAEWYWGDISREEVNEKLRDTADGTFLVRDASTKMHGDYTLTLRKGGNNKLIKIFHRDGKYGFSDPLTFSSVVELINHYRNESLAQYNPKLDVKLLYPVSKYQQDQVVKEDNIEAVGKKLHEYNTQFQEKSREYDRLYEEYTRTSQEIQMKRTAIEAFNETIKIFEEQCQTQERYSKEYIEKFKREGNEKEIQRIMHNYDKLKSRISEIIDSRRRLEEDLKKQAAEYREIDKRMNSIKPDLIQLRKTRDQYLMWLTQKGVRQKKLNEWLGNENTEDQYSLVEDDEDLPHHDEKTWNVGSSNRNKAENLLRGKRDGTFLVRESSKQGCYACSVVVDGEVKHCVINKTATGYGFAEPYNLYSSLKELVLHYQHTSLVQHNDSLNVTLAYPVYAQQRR
# Method: as §1
# • 1. Buffer preparation: 50 mM HEPES, pH 7.5, 3 mM MgCl2, 1 mM EGTA, 100 mM NaCl, 0.03% CHAPS. • 2. Compound was formulated in 100% DMSO in a concentration gradient, and added to a 384-well plate to a final DMSO concentration of 1%. • 3. PI3Kα, PI3Kδ, PI3Kβ and PI3Kγ enzymes were diluted to an optimum concentration with the following buffer: 50 mM HEPES, pH 7.5, 3 mM MgCl2, 1 mM EGTA, 100 mM NaCl, 0.03% CHAPS, 2 mM DTT, and transferred to a 384-well plate and incubated with the compound for a certain time. • 4. Substrate was diluted to an optimum concentration with the following buffer: 50 mM HEPES, pH 7.5, 3 mM MgCl2, 1 mM EGTA, 100 mM NaCl, 0.03% CHAPS, 2 mM DTT, 50 μM PIP2, 25 μM ATP; then added to a 384-well plate to initiate the reaction, and for PI3Kα, PI3Kβ and PI3Kγ at room temperature reacted for 1 hr, for PI3Kδ at room temperature reacted for 2 hrs. For PI3Kβ and PI3Kγ, it was still necessary to further add 10 μL ADP-Glo Detection Reagent, and then equilibrated at room temperature for 30 minutes. • 5. Read Luminescense with FlexStation, and calculate the inhibition rate as the average of two tests.
# Raji cells = assay: Inhibition of TNF-α generation of human Raji cell induced by human IgM; assay type: cell-based; conditions: 10 μg/ml IgM stimulation, 24 hrs, ELISA
# Method: Screening Test for a Drug on Inhibiting TNF-α Generation of Human Raji Cell Induced by Human IgM
# • 1. Raji cell lines (source of human Burkitt's lymphoma) were employed. • 2. 1×10^5/well Raji cells were plated onto a 96-well cell culture plate. • 3. Compounds to be screened were diluted to the corresponding test concentrations and added into the cell culture system 30 minutes before IgM stimulation. • 4. 10 μg/ml IgM monoclonal antibody was added into the cell culture system to stimulate the cells generating TNF-α. • 5. 24 hrs later, the amount of TNF-α generated by the cell system was measured by ELISA method. • 6.
# Chain of PI3Kδ (O00329 whole entry): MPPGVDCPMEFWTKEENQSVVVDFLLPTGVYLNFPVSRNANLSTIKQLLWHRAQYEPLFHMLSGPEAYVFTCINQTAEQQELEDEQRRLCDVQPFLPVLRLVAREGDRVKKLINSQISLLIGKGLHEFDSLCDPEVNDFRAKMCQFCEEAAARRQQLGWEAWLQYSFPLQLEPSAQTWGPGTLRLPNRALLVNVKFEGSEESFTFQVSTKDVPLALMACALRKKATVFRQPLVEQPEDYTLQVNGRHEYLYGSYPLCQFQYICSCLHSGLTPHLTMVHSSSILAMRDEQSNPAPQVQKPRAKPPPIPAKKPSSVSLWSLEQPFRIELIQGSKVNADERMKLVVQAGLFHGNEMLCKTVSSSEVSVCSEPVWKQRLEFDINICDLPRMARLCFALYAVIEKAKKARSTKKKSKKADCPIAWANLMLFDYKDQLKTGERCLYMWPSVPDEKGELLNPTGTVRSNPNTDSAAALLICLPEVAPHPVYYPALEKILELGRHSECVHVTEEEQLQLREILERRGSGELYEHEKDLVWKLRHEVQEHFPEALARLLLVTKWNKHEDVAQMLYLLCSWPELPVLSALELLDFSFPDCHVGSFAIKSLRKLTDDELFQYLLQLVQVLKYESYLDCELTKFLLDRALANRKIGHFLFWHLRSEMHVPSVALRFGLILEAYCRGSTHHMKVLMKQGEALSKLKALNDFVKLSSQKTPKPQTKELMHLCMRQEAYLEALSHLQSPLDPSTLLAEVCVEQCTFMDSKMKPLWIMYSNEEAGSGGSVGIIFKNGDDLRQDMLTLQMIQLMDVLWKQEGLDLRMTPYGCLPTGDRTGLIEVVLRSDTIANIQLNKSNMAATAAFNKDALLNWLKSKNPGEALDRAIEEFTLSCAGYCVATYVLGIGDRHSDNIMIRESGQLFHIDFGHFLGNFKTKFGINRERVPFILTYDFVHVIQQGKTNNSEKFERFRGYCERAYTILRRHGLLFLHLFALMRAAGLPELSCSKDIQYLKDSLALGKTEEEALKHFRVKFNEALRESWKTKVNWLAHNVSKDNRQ
# Chain of PI3Kδ (P27986 whole entry partner): as the sequence (P27986 whole entry partner) above
Compound,IC50 (PI3Kδ),α/δ selectivity (PI3Kα),IC50 (Raji cells),IC50 (Raji cells; Homo sapiens)
COc1ncc(-c2nc(N3CCOCC3)nc3c(CN4CCN(C(=O)C(F)(F)F)CC4)c(C)sc23)cc1NS(=O)(=O)C1CC1 [Compound 82],15 nM,143,76.8 nM,
COc1ncc(-c2nc(N3CCOCC3)nc3c(CN4CCC(C(C)(C)O)CC4)c(C)sc23)cc1NS(=O)(=O)C1CC1 [Compound 79],9.4 nM,582,14.5 nM,
"CC[C@H](Nc1ncnc2[nH]cnc12)c1nc2cccc(F)c2c(=O)n1-c1ccccc1 [CAL-101, idelalisib, reference compound]",,,,29.8 nM
c1cc(-c2nc(N3CCOCC3)nc3c(CN4CCN(C5COC5)CC4)csc23)c2cc[nH]c2c1 [Compound 11],17 nM,>588,41.1 nM,
COc1ncc(-c2nc(N3CCOCC3)nc3c(CN4CCC(OC)CC4)c(C)sc23)cc1NS(=O)(=O)C1CC1 [Compound 81],24 nM,374,43 nM,
COc1ncc(-c2nc(N3CCOCC3)nc3c(CN4CCC(N5CCC[C@@H]5C)CC4)c(C)sc23)cc1NS(C)(=O)=O [Compound 127],5.8 nM,38,1.5 nM,
CCOC1CCN(Cc2c(C)sc3c(-c4cnc(OC)c(NS(C)(=O)=O)c4)nc(N4CCOCC4)nc23)CC1 [Compound 103],8.4 nM,176,9.3 nM,
COc1ncc(-c2nc(N3CCOCC3)nc3c(CN4CCC(C(C)(C)O)CC4)c(C)sc23)cc1NS(C)(=O)=O [Compound 60],7.1 nM,147,2 nM,
COc1ncc(-c2nc(N3CCOCC3)nc3c(CN4CCC(N5CCC[C@H]5CO)CC4)c(C)sc23)cc1NS(C)(=O)=O [Compound 126],4.7 nM,170,3.9 nM,
c1cc(-c2nc(N3CCOCC3)nc3c(CN4CCN(C5CCOCC5)CC4)csc23)c2cc[nH]c2c1 [Compound 10],25 nM,>400,28 nM,
CC(=O)N1CCN(Cc2csc3c(-c4cccc5[nH]ccc45)nc(N4CCOCC4)nc23)CC1 [Compound 14],3.8 nM,700,25.6 nM,
COc1ncc(-c2nc(N3CCOCC3)nc3c(CN4CCN(C(=O)CC#N)CC4)c(C)sc23)cc1NS(C)(=O)=O [Compound 100],17 nM,17,5.7 nM,
CN1CCN(Cc2csc3c(-c4cncc(NS(C)(=O)=O)c4)nc(N4CCOCC4)nc23)CC1 [Compound 75],31 nM,19,,
CS(=O)(=O)N1CCN(Cc2csc3c(-c4c(F)ccc5[nH]ccc45)nc(N4CCOCC4)nc23)CC1 [Compound 1],105 nM,12,,
CNC1CCN(Cc2c(C)sc3c(-c4cnc(OC)c(NS(C)(=O)=O)c4)nc(N4CCOCC4)nc23)CC1 [Compound 92],71 nM,42,,
COc1ncc(-c2nc(N3CCOCC3)nc3c(CN4CC5CC4CN5C4COC4)csc23)cc1NS(C)(=O)=O (stereo not shown) [Compound 48],6.9 nM,52,,
COc1ncc(-c2nc(N3CCOCC3)nc3c(CN4CCN(C(C)(C)C)CC4)csc23)cc1NS(=O)(=O)C1CC1 [Compound 67],3.6 nM,195,,
COc1ncc(-c2nc(N3CCOCC3)nc3c(CN4CCC(OC(C)C)CC4)c(C)sc23)cc1NS(C)(=O)=O [Compound 145],3.8 nM,287,,
COc1ncc(-c2nc(N3CCOCC3)nc3c(CN4CCC(N5CCCC5)C(F)(F)C4)c(C)sc23)cc1NS(C)(=O)=O (stereo not shown) [Compound 123],6.8 nM,175,,
COc1ncc(-c2nc(N3CCOCC3)nc3c(OC4CCOCC4)c(C)sc23)cc1NS(C)(=O)=O [Compound 152],15.6 nM,12,,
COc1ncc(-c2nc(N3CCOCC3)nc3c(CN4CCC(N5CCC(F)CC5)CC4)c(C)sc23)cc1NS(C)(=O)=O [Compound 128],6 nM,223,,

Compound,IC50 (PI3Kδ),α/δ selectivity (PI3Kα),IC50 (Raji cells),IC50 (Raji cells; Homo sapiens)
COC(=O)C1CCN(Cc2c(C)sc3c(-c4cnc(OC)c(NS(C)(=O)=O)c4)nc(N4CCOCC4)nc23)CC1 [Compound 111],6.5 nM,301,,
Cc1sc2c(-c3cnc(Cl)c(NS(C)(=O)=O)c3)nc(N3CCOCC3)nc2c1CN1CCC(C(C)(C)O)CC1 [Compound 120],5 nM,24,,
COc1ncc(-c2nc(N3CCOCC3)nc3c(CN(C)C)c(C)sc23)cc1NS(C)(=O)=O [Compound 94],32 nM,31,,
COc1ncc(-c2nc(N3CCOCC3)nc3c(CN4CCC(N5CC=CC5)CC4)c(C)sc23)cc1NS(C)(=O)=O [Compound 132],10 nM,35,,
COc1ncc(-c2nc(N3CCOCC3)nc3c(CN4CCN(C(=O)[C@H](C)O)CC4)c(C)sc23)cc1NS(C)(=O)=O [Compound 74],4.4 nM,13,,
COc1ncc(-c2nc(N3CCOCC3)nc3c(CN4CCN(C(C)(C)CO)CC4)c(C)sc23)cc1NS(C)(=O)=O [Compound 119],5 nM,84,,
COC(=O)N1CCN(Cc2c(C)sc3c(-c4cnc(OC)c(NS(C)(=O)=O)c4)nc(N4CCOCC4)nc23)CC1 [Compound 114],5 nM,44,,
CC(C)C(=O)N1CCN(Cc2csc3c(-c4cnn(C)c4)nc(N4CCOCC4)nc23)CC1 [Compound 19],87 nM,49,,
COc1ncc(-c2nc(N3CCOCC3)nc3c(CN4CCn5ccnc5C4)c(C)sc23)cc1NS(C)(=O)=O [Compound 144],3.4 nM,56,,
COc1ncc(-c2nc(N3CCOCC3)nc3c(CN4CCN(C(=O)[C@@H](C)O)CC4)c(C)sc23)cc1NS(C)(=O)=O [Compound 73],4.4 nM,18,,
COc1ncc(-c2nc(N3CCOCC3)nc3c(CN4CCC(C5CC5)CC4)c(C)sc23)cc1NS(C)(=O)=O [Compound 131],6.2 nM,627,,
CC(C)(O)CN1CCN(Cc2csc3c(-c4cccc5[nH]ccc45)nc(N4CCOCC4)nc23)CC1 [Compound 13],52 nM,>192,,
COc1ncc(-c2nc(N3CCOCC3)nc3c(CN4CC(C(C)(C)O)C4)c(C)sc23)cc1NS(C)(=O)=O [Compound 151],15 nM,41,,
COc1ncc(-c2nc(N3CCOCC3)nc3c(CN4CC5CC5C4)c(C)sc23)cc1NS(C)(=O)=O (stereo not shown) [Compound 141],9 nM,120,,
COc1ncc(-c2nc(N3CCOCC3)nc3cc(C)sc23)cc1NS(C)(=O)=O [Compound 97],190 nM,10,,
COc1ncc(-c2nc(N3CCOCC3)nc3c(CN4CCOCC4)c(C)sc23)cc1NS(C)(=O)=O [Compound 98],12 nM,30,,
COc1ncc(-c2nc(N3CCOCC3)nc3c(CN4CCC(N5CC(F)(F)C5)CC4)c(C)sc23)cc1NS(C)(=O)=O [Compound 146],2.9 nM,120,,
COc1ncc(-c2nc(N3CCOCC3)nc3c(CN4CCN(C5CC(C)OC(C)C5)CC4)csc23)cc1NS(C)(=O)=O (stereo not shown) [Compound 77],7.1 nM,52,,
COc1ncc(-c2nc(N3CCOCC3)nc3c(CN4CCN(S(C)(=O)=O)CC4)c(C)sc23)cc1NS(C)(=O)=O [Compound 61],4.7 nM,12,,
CC(C)C(=O)N1CCN(Cc2csc3c(-c4cncc(NS(C)(=O)=O)c4)nc(N4CCOCC4)nc23)CC1 [Compound 31],4.9 nM,10,,
COc1ncc(-c2nc(N3CCOCC3)nc3c(CN4CCN(C(=O)C(C)(C)C)CC4)csc23)cc1NS(C)(=O)=O [Compound 46],6.1 nM,23,,
